Experimental data: ChEMBL document CHEMBL3639303, “Organic compounds” (2013)

Target: T1, Renin (Homo sapiens, UniProt P00797)
T1 sequence (P00797 whole entry): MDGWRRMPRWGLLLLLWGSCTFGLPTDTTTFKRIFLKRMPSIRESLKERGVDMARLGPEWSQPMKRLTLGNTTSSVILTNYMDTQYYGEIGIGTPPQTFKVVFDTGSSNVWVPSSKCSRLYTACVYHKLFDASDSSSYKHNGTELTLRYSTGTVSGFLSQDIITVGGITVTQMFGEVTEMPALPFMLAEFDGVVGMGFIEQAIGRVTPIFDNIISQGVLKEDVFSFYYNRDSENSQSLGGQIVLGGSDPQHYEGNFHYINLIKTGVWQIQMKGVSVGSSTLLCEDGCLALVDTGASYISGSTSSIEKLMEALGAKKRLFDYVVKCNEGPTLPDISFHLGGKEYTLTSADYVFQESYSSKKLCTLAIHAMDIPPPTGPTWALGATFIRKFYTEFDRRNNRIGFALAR
Test: FRET Assay: Inhibition activity of renin using FRET assay.

Row | Structure (SMILES) | IC50 [nM]
1 | CCOC[C@@H](CC(C)C)NC(=O)[C@@H]1CNC[C@H](C(=O)N(c2cc(OC)c(C(C)C)cn2)C2CC2)C1 | 0.9
2 | CCOC[C@H](NC(=O)[C@@H]1CNC[C@H](C(=O)N(c2ccc(C(C)C)cn2)C2CC2)C1)C(C)C | 0.9
3 | CCOC[C@@H](CC(C)C)NC(=O)[C@@H]1CNC[C@H](C(=O)N(c2ccc(C(C)C)cn2)C2CC2)[C@@H]1O | 2
4 | CCOC[C@@H](CC(C)C)NC(=O)[C@@H]1CNC[C@H](C(=O)N(c2cc(OCCCOC)c(C(C)C)cn2)C2CC2)[C@@H]1O | 0.4

The remaining compounds from weak to strong by IC50, led by results:

Row | IC50 [nM] | Structure (SMILES)
5 | 2 | CCOC[C@@H](CC(C)C)NC(=O)[C@@H]1CNC[C@H](C(=O)N(c2ccc(C(C)(C)OC)cn2)C2CC2)[C@@H]1O
6 | 0.8 | CCOC[C@@H](CC(C)C)NC(=O)[C@@H]1CNC[C@H](C(=O)N(CC(C)C)c2cc(OC)c(C(C)C)cn2)C1
7 | 0.6 | CCOC[C@@H](CC(C)C)NC(=O)[C@@H]1CNC[C@H](C(=O)N(c2cc(OCC)c(CC)cn2)C2CC2)C1
8 | 0.3 | CCOC[C@@H](NC(=O)[C@@H]1CNC[C@H](C(=O)N(c2cc(OC)c(C(C)C)cn2)C2CC2)C1)C1CCCCC1
